“And” between values parts separate entries of the source, which are not always exact repeats. Equal values may be shown once. Read-outs that look alike come from different tables or passages of the source.
Experiments:
[1] = Drug concentration in mouse blood after oral dosing; type: in vivo; conditions: female, whole blood (dried blood spots), day 5, read-out: Drug concentration, 4-h time point
Procedure: The LPA gene (GenBank accession code NM_005577) encoding the human apo(a) protein with a signal peptide, one KIV type 1, six KIV type 2 repeats, one each of KIV types 3–10, one KV and one protease domain was subcloned into a transgenic vector containing a mouse albumin promoter cassette and a human growth hormone polyadenylation signal. The transgenic mouse line was generated by pronucleus injection of the LPA transgenic vector. Eight individual transgenic founder mice were assessed for germline transmission of LPA by genotyping and assessment of the levels of apo(a) in the plasma. Positive founder mice were crossed with ApoB100 transgenic mice (Taconic model 1004), and the resulting mouse line nomenclature (B6.SJL-Tg(APOB)1102Sgy Tg(Alb-LPA)32Arte) was selected on the basis of the confirmation of germline transmission, the identification of LPA and huApoB100 transgenes and the levels of Lp(a) in the plasma. Mice hemizygous for both transgenes were used for pharmacology studies. The studies were conducted in female Lp(a) double transgenic mice (age around 7–17 months). Mice were housed in cages with a standard light cycle (12-h light, 12-h dark), at room temperature (22 ± 4 °C), with a relative humidity of 30–70%. Mice were identified by numbers on the cage cards. After arrival, mice were fed on a normal diet (Harlan Teklad diet 2014). Mice were randomized to treatment groups (n = 5 per group, unless otherwise noted) by body weight and baseline plasma Lp(a) concentration using a block randomized allocation tool (BRAT) for the study. In an example Lp(a) transgenic mouse study in which 66 mice were prescreened for baseline Lp(a) levels, the average Lp(a) level was 45 ± 1.8 µg ml^−1 (range 20–78 µg ml^−1). Mice were dosed with various compounds in vehicle (10 ml kg^−1, 1% hydroxyethyl cellulose (HEC), 0.25% Tween-80, Antifoam) or with vehicle alone as a control orally BID for five days. Blood samples were collected by tail bleeds at designated times, and Lp(a) levels were determined by ELISA by an investigator who was blinded to group allocation. In brief, lipoprotein particles were captured by a goat anti-Lp(a)-antibody-coated plate (Abcam ab31675, diluted 1:12,500 in HEPES-buffered saline), the plates were washed and samples were detected using an HRP-conjugated goat anti-apoB antibody (Abcam ab27622, diluted 1:3,000). Colorimetric peroxidase substrate 3,3’,5,5’-TMB was added, and the reaction was stopped using 1 N sulfuric acid. Absorbance at 450 nm was read on a Molecular Devices SpectraMax plate reader. Blood samples were collected at four hours after dosing on day 5 of dosing to confirm exposure. Full pharmacokinetic (PK) profiles were not evaluated. Concentrations of compounds were evaluated from dried blood spots through a non-Good Laboratory Practice (GLP) liquid chromatography with tandem mass spectrometry (LC–MS/MS) assay. Data were analysed in GraphPad Prism v.9.5.1

Lp(a) = Lp(a) levels in cynomolgus monkeys; type: in vivo, cynomolgus monkey (Macaca fascicularis); design: key to Mean_pCFB_vs_Veh / Mean_pCFB_vs_Veh (Lp(a)): % change from pre-dose, treated group compared with vehicle; key to Mean_pCFB / Mean_pCFB (Lp(a)): % change in Lp(a) from before dosing; Lp(a): unit not given here; conditions: for Mean_pCFB_vs_Veh (Lp(a)) / Mean_pCFB (Lp(a)) / Lp(a) / pCFB (Lp(a) pct_chng_from_baseline): cynomolgus monkey; for Mean_pCFB_vs_Veh (Lp(a)): difference vs vehicle; for Mean_pCFB (Lp(a)): group mean; for Lp(a) / pCFB (Lp(a) pct_chng_from_baseline): individual animals
Procedure: Female or male Chinese Macaca fascicularis cynomolgus monkeys (as described in the figure legends) of unspecified ages with body weight ranging from 2.0 kg to 5.0 kg were housed in cages with a standard light cycle (12-h light, 12-h dark) at room temperature (20–26 °C); the relative humidity ranged from 30% to 70%. Monkeys were given fruits, vegetables or dietary enrichment as a form of environmental enrichment, and various cage enrichment devices. Purina Lab diet 5048C was provided BID and individual monkeys were identified by cage card. The monkeys were randomized to treatment groups by body weight and baseline plasma Lp(a) concentration, as determined by a commercially available Randox assay (Randox LP2757), using a BRAT for the study. In an example cynomolgus monkey study in which 39 monkeys were prescreened for baseline Lp(a) levels, the average Lp(a) level was 350 ± 57 µg ml^−1 (range 53–1,667 µg ml^−1). Monkeys were dosed orally with vehicle (purified water) or compounds QD or BID for 14 days, at dose levels and frequencies as previously described for each compound. Plasma samples were collected on days before dosing to establish baseline Lp(a) and after the morning dose during the study. Lp(a) levels were measured by an investigator who was blinded to group allocation using the Randox assay, and were quantified relative to the calibrator series (Randox LP3404). Data were analysed in GraphPad Prism v.9.5.1. The Lp(a) percentage change from before dosing in non-human primates was analysed by repeated measures ANOVA in SAS v.9.4 (SAS). At each time point, the Lp(a) percentage change for each treated group was compared with vehicle by the Bonferroni method.

- concentration at 4 h ([1]; oral 1 mg/kg): 28.4 ± 11 nM
- concentration at 4 h ([1]; oral 3 mg/kg): 97.3 ± 39.1 nM
- concentration at 4 h ([1]; oral 10 mg/kg): 215 ± 34.6 nM
- concentration at 4 h ([1]; oral 30 mg/kg): 264 ± 39.3 nM
SMILES: O=C(O)[C@@H](Cc1cccc(CN(Cc2cccc(C[C@H](C(=O)O)[C@H]3CCNC3)c2)Cc2cccc(C[C@H](C(=O)O)[C@H]3CCNC3)c2)c1)[C@H]1CCNC1 [LY3473329]
- Mean_pCFB_vs_Veh (Lp(a)) (Lp(a); 1mpk, D01): 4.27
- Mean_pCFB_vs_Veh (Lp(a)) (Lp(a); 1mpk, D03): -6.51
- Mean_pCFB_vs_Veh (Lp(a)) (Lp(a); 1mpk, D05): -6.39
- Mean_pCFB_vs_Veh (Lp(a)) (Lp(a); 1mpk, D09): -13.72
- Mean_pCFB_vs_Veh (Lp(a)) (Lp(a); 1mpk, D14): -22.18
- Mean_pCFB_vs_Veh (Lp(a)) (Lp(a); 10mpk, D01): 3.91
- Mean_pCFB_vs_Veh (Lp(a)) (Lp(a); 10mpk, D03): -29.92
- Mean_pCFB_vs_Veh (Lp(a)) (Lp(a); 10mpk, D05): -32.94
- Mean_pCFB_vs_Veh (Lp(a)) (Lp(a); 10mpk, D09): -36.99
- Mean_pCFB_vs_Veh (Lp(a)) (Lp(a); 10mpk, D14): -48.11
- Mean_pCFB_vs_Veh (Lp(a)) (Lp(a); 100mpk, D01): -15.98
- Mean_pCFB_vs_Veh (Lp(a)) (Lp(a); 100mpk, D03): -38.35
- Mean_pCFB_vs_Veh (Lp(a)) (Lp(a); 100mpk, D05): -32.35
- Mean_pCFB_vs_Veh (Lp(a)) (Lp(a); 100mpk, D09): -50.18
- Mean_pCFB_vs_Veh (Lp(a)) (Lp(a); 100mpk, D14): -61.77
- Mean_pCFB (Lp(a)) (Lp(a); 1mpk, D01): -0.85
- Mean_pCFB (Lp(a)) (Lp(a); 1mpk, D03): -12.33
- Mean_pCFB (Lp(a)) (Lp(a); 1mpk, D05): -14.05
- Mean_pCFB (Lp(a)) (Lp(a); 1mpk, D09): -21.85
- Mean_pCFB (Lp(a)) (Lp(a); 1mpk, D14): -34.04
- Mean_pCFB (Lp(a)) (Lp(a); 10mpk, D01): -1.2
- Mean_pCFB (Lp(a)) (Lp(a); 10mpk, D03): -35.74
- Mean_pCFB (Lp(a)) (Lp(a); 10mpk, D05): -40.6
- Mean_pCFB (Lp(a)) (Lp(a); 10mpk, D09): -45.13
- Mean_pCFB (Lp(a)) (Lp(a); 10mpk, D14): -59.97
- Mean_pCFB (Lp(a)) (Lp(a); 100mpk, D01): -21.09
- Mean_pCFB (Lp(a)) (Lp(a); 100mpk, D03): -44.17
- Mean_pCFB (Lp(a)) (Lp(a); 100mpk, D05): -40.01
- Mean_pCFB (Lp(a)) (Lp(a); 100mpk, D09): -58.32
- Mean_pCFB (Lp(a)) (Lp(a); 100mpk, D14): -73.62
- Lp(a) (Lp(a); 1mpk group, Day 1, Pre dose (baseline), 1 mg/kg): 115.019 and 15.737 and 53.63 and 67.735 and 63.938
- Lp(a) (Lp(a); 1mpk, Day 1, 4hr, 1 mg/kg): 97.491 and 117.597 and 16.395 and 53.808 and 66.137 and 65.184
- pCFB (Lp(a) pct_chng_from_baseline) (Lp(a); 1mpk, Day 1, 1 mg/kg): -11.4161 and 2.241 and 4.181 and 0.3319 and -2.359 and 1.949
- Lp(a) (Lp(a); 1mpk, Day 3, 4hr, 1 mg/kg): 91.721 and 112.368 and 11.704 and 47.474 and 63.489 and 56.499
- pCFB (Lp(a) pct_chng_from_baseline) (Lp(a); 1mpk, Day 3, 1 mg/kg): -16.6589 and -2.305 and -25.6275 and -11.4787 and -6.269 and -11.6347
- Lp(a) (Lp(a); 1mpk, Day 5, 4hr, 1 mg/kg): 85.692 and 109.155 and 11.192 and 45.131 and 70.165 and 53.752
- pCFB (Lp(a) pct_chng_from_baseline) (Lp(a); 1mpk, Day 5, 1 mg/kg): -22.1371 and -5.098 and -28.881 and -15.8475 and 3.588 and -15.9311
- Lp(a) (Lp(a); 1mpk, Day 9, 4hr, 1 mg/kg): 81.717 and 123.954 and 9.293 and 31.114 and 64.385
- pCFB (Lp(a) pct_chng_from_baseline) (Lp(a); 1mpk, Day 9, 1 mg/kg): -25.7489 and 7.768 and -40.9481 and -41.984 and -4.946 and -25.2635
- pCFB (Lp(a) pct_chng_from_baseline) (Lp(a); 1mpk, Day 14, 1 mg/kg): -43.1939 and -2.975 and -53.0914 and -46.914 and -15.7924 and -42.2472
- Lp(a) (Lp(a); 10mpk group, Day 1, Pre dose (baseline), 10 mg/kg): 63.144 and 63.676 and 112.151 and 49.481 and 65.725 and 30.09
- pCFB (Lp(a) pct_chng_from_baseline) (Lp(a); 10mpk, Day 1, 10 mg/kg): -0.54 and 5.215 and -3.008 and -7.112 and -1.928 and 0.1728
- pCFB (Lp(a) pct_chng_from_baseline) (Lp(a); 10mpk, Day 3, 10 mg/kg): -40.1463 and -31.9398 and -31.5575 and -28.9606 and -53.8653 and -27.9495
- Lp(a) (Lp(a); 10mpk, Day 5, 4hr, 10 mg/kg): 69.663 and 26.971 and 31.738 and 21.72
- pCFB (Lp(a) pct_chng_from_baseline) (Lp(a); 10mpk, Day 5, 10 mg/kg): -39.4923 and -41.2165 and -37.8846 and -45.4922 and -51.7109 and -27.8166
- Lp(a) (Lp(a); 10mpk, Day 9, 4hr, 10 mg/kg): 37.879 and 46.471 and 59.699 and 19.275 and 28.08 and 18.466
- pCFB (Lp(a) pct_chng_from_baseline) (Lp(a); 10mpk, Day 9, 10 mg/kg): -40.0117 and -27.0196 and -46.7691 and -61.0457 and -57.2765 and -38.6308
- Lp(a) (Lp(a); 10mpk, Day 14, 4hr, 10 mg/kg): 27.525 and 31.412 and 53.912 and 14.404 and 16.367 and 13.601
- pCFB (Lp(a) pct_chng_from_baseline) (Lp(a); 10mpk, Day 14, 10 mg/kg): -56.4092 and -50.669 and -51.9291 and -70.8898 and -75.0978 and -54.7989
- Lp(a) (Lp(a); 100mpk group, Day 1, Pre dose (baseline), 100 mg/kg): 63.503 and 134.003 and 31.483 and 50.567 and 61.834
- Lp(a) (Lp(a); 100mpk, Day 1, 4hr, 100 mg/kg): 57.552 and 102.207 and 18.95 and 36.698 and 61.471
- pCFB (Lp(a) pct_chng_from_baseline) (Lp(a); 100mpk, Day 1, 100 mg/kg): -39.8088 and -27.427 and -0.5871 and -9.371 and -23.7278
- Lp(a) (Lp(a); 100mpk, Day 3, 4hr, 100 mg/kg): 37.977 and 67.885 and 16.507 and 23.074 and 46.465
- pCFB (Lp(a) pct_chng_from_baseline) (Lp(a); 100mpk, Day 3, 100 mg/kg): -47.5685 and -54.3695 and -24.8553 and -40.1965 and -49.3407
- Lp(a) (Lp(a); 100mpk, Day 5, 4hr, 100 mg/kg): 41.338 and 90.201 and 17.421 and 23.304 and 43.695
- pCFB (Lp(a) pct_chng_from_baseline) (Lp(a); 100mpk, Day 5, 100 mg/kg): -32.6873 and -44.6654 and -53.9146 and -29.335 and -34.9039
- Lp(a) (Lp(a); 100mpk, Day 9, 4hr, 100 mg/kg): 23.771 and 69.54 and 11.012 and 15.587 and 35.753
- pCFB (Lp(a) pct_chng_from_baseline) (Lp(a); 100mpk, Day 9, 100 mg/kg): -48.1056 and -65.0224 and -69.1755 and -42.1791 and -62.5671
- Lp(a) (Lp(a); 100mpk, Day 14, 4hr, 100 mg/kg): 22.568 and 43.526 and 4.973 and 14.913 and 14.296
- pCFB (Lp(a) pct_chng_from_baseline) (Lp(a); 100mpk, Day 14, 100 mg/kg): -67.5186 and -84.2042 and -70.5084 and -76.88 and -64.4615
- reduction of median Lp(a) levels compared with baseline (Lp(a); cynomolgus monkeys, 100 mg kg^−1 QD): up to 71%

— publication PMC11111404, “Discovery of potent small-molecule inhibitors of lipoprotein(a) formation” (Nature, 2024)
